Test results: patent publication US5440016A, “Peptides of the formula (KFmoc) ZZZ and their uses” (priority 1993, dated 1995)
Converted amounts (≈) assume the structure as drawn. Square brackets hold non-standard residues; d marks the D form. Ends that are not written are not given here. Peptide text beside a SMILES is read from it. * marks the point of attachment. Fmoc = O=C(OCC1c2ccccc2-c2ccccc21)*

test system: Human red blood cells (RBCs); assay: Hemolytic activity; type: cell-based; settings: Tables 18-21
Experimental: Each assay was carried out in 96-well culture tissue plates. Four wells per plate contain 125 μl of a non-peptide positive control (1% Triton in de-ionized water), and four wells per plate contain 125 μl of a control blank, phosphate buffered saline (PBS). The hemolytic peptide melittin was used as comparative control. The controls served to detect possible contamination and to calculate the percent hemolysis of each peptide. Human red blood cells (RBCs) were washed with PBS and centrifuged to separate them from the serum. The cells were then resuspended in PBS to a final suspension of 0.5% RBC. 125 μl of this suspension was added to the peptides and controls solution. The release of hemoglobin resulting from the cell lysis was determined by measuring the OD at 414 nm of 100 μl of the supernatant.

Molecule	HD50 (concentration necessary to lyse 50% of the cells)
CC[C@@H](C)[C@@H](NC(=O)[C@@H](CS)NC(=O)[C@H](CCCCN)NC(=O)OCC1c2ccccc2-c2ccccc21)C(=O)N[C@H](C)C(N)=O [(KFmoc)cia-NH2] (Fmoc-K[dC][dI][dA]-NH2)	77 µg/mL
(KFmoc)WY(Hyp)-NH2	81 µg/mL
NCCCC[C@H](NC(=O)OCC1c2ccccc2-c2ccccc21)C(=O)N[C@@H](Cc1c[nH]c2ccccc12)C(=O)N[C@@H](Cc1ccc(O)cc1)C(=O)N[C@H](CC(N)=O)C(N)=O [(KFmoc)WYn-NH2] (Fmoc-KWY[dN]-NH2)	257 µg/mL
(KFmoc)ciG-NH2	35 µg/mL

target: melittin (Apis mellifera, UniProt P01501); assay: cell-based; settings: read-out: IC50, inhibition of melittin (converted)
Sequence (P01501 44-69 limits assumed): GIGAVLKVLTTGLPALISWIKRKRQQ

Molecule	IC50
Ac-FDIWFE-NH2 [Ac-FDIWFE-NH2]	185 µM
Ac-IVILLF-NH2 [Ac-IVILLF-NH2]	27.7 µM
Ac-IDIYFK-NH2 [Ac-IDIYFK-NH2]	918 µM
Ac-IVIFFE-NH2 [Ac-IVIFFE-NH2]	17.3 µM
Ac-IVILTA-NH2 [Ac-IVILTA-NH2]	19.4 µM
Ac-IVIFFS-NH2 [Ac-IVIFFS-NH2]	27.4 µM
Ac-IVILTG-NH2 [Ac-IVILTG-NH2]	33.5 µM
Ac-IVIFFI-NH2 [Ac-IVIFFI-NH2]	105 µM
Ac-IVILLR-NH2 [Ac-IVILLR-NH2]	> 326 µM
Ac-IIIYCE-NH2 [Ac-IIIYCE-NH2]	15.1 µM
Ac-IVILLC-NH2 [Ac-IVILLC-NH2]	> 350 µM
Ac-IVILTW-NH2 [Ac-IVILTW-NH2]	14 µM
Ac-IQIWCE-NH2 [Ac-IQIWCE-NH2]	6.73 µM
Ac-IVILLI-NH2 [Ac-IVILLI-NH2]	35.9 µM
Ac-IVILLW-NH2 [Ac-IVILLW-NH2]	6.27 µM
Ac-IVILLA-NH2 [Ac-IVILLA-NH2]	22 µM
Ac-IVILTK-NH2 [Ac-IVILTK-NH2]	> 344 µM
Ac-IVILLQ-NH2 [Ac-IVILLQ-NH2]	12.2 µM
NEEIVF-NH2 [NEEIVF-NH2]	1210 µM
Ac-MILWIE-NH2 [Ac-MILWIE-NH2]	13 µM
Ac-IIIWCE-NH2 [Ac-IIIWCE-NH2]	5.51 µM
Ac-IDIYCE-NH2 [Ac-IDIYCE-NH2]	361 µM
Ac-IVIFFY-NH2 [Ac-IVIFFY-NH2]	24.9 µM
NEEIVI-NH2 [NEEIVI-NH2]	509 µM
Ac-IVILTR-NH2 [Ac-IVILTR-NH2]	> 331 µM

Molecule	IC50
Ac-IQIYFE-NH2 [Ac-IQIYFE-NH2]	19.9 µM
Ac-FDIYFE-NH2 [Ac-FDIYFE-NH2]	1050 µM
Ac-IVILTC-NH2 [Ac-IVILTC-NH2]	27.1 µM
NDEIVI-NH2 [NDEIVI-NH2]	444 µM
Ac-IVILTY-NH2 [Ac-IVILTY-NH2]	23.6 µM
Ac-FIIWFE-NH2 [Ac-FIIWFE-NH2]	6.03 µM
Ac-VIQQFV-NH2 [Ac-VIQQFV-NH2]	20.7 µM
Ac-FIIYCE-NH2 [Ac-FIIYCE-NH2]	5.68 µM
Ac-IVILLM-NH2 [Ac-IVILLM-NH2]	27 µM
Ac-IVILTV-NH2 [Ac-IVILTV-NH2]	30.1 µM
Ac-IVIFFW-NH2 [Ac-IVIFFW-NH2]	18.5 µM
Ac-IVILTT-NH2 [Ac-IVILTT-NH2]	62.9 µM
Ac-IDIYFE-NH2 [Ac-IDIYFE-NH2]	355 µM
Ac-IIIWFE-NH2 [Ac-IIIWFE-NH2]	6.27 µM
Ac-IVILLV-NH2 [Ac-IVILLV-NH2]	98.6 µM
Ac-IVILLY-NH2 [Ac-IVILLY-NH2]	12.9 µM
Ac-IVILTH-NH2 [Ac-IVILTH-NH2]	76.1 µM
Ac-IVIFFL-NH2 [Ac-IVIFFL-NH2]	140 µM
Ac-IVIFFP-NH2 [Ac-IVIFFP-NH2]	49 µM
Ac-IVIFFQ-NH2 [Ac-IVIFFQ-NH2]	32.2 µM
Ac-IDIWCE-NH2 [Ac-IDIWCE-NH2]	978 µM
Ac-IVILLH-NH2 [Ac-IVILLH-NH2]	> 334 µM
NDEIVF-NH2 [NDEIVF-NH2]	853 µM
Ac-IVIFFV-NH2 [Ac-IVIFFV-NH2]	38.6 µM
Ac-IVILLP-NH2 [Ac-IVILLP-NH2]	36.7 µM

Molecule	IC50
DDEITF-NH2 [DDEITF-NH2]	1630 µM
Ac-IVILLN-NH2 [Ac-IVILLN-NH2]	17.9 µM
Ac-IQIYCE-NH2 [Ac-IQIYCE-NH2]	5.93 µM
Ac-IVILTM-NH2 [Ac-IVILTM-NH2]	12.3 µM
Ac-IVIFFF-NH2 [Ac-IVIFFF-NH2]	205 µM
Ac-IVIFFT-NH2 [Ac-IVIFFT-NH2]	30.8 µM
Ac-IVIFFC-NH2 [Ac-IVIFFC-NH2]	92.1 µM
Ac-IVILTS-NH2 [Ac-IVILTS-NH2]	52.5 µM
Ac-IVILLL-NH2 [Ac-IVILLL-NH2]	123 µM
Ac-FQIYFE-NH2 [Ac-FQIYFE-NH2]	21.4 µM
Ac-IVILTP-NH2 [Ac-IVILTP-NH2]	70.4 µM
Ac-FDIWFK-NH2 [Ac-FDIWFK-NH2]	128 µM
Ac-IVIFFA-NH2 [Ac-IVIFFA-NH2]	33.3 µM
Ac-IQIYCK-NH2 [Ac-IQIYCK-NH2]	1310 µM
Ac-FIIYFK-NH2 [Ac-FIIYFK-NH2]	419 µM
Ac-IVILLE-NH2 [Ac-IVILLE-NH2]	10.8 µM
Ac-FQIWCE-NH2 [Ac-FQIWCE-NH2]	10.9 µM
Ac-WIQIFI-NH2 [Ac-WIQIFI-NH2]	25.6 µM
Ac-IIIYFE-NH2 [Ac-IIIYFE-NH2]	5.85 µM
Ac-FIIWFK-NH2 [Ac-FIIWFK-NH2]	1450 µM
Ac-IVIFFR-NH2 [Ac-IVIFFR-NH2]	> 299 µM
Ac-IDIWCK-NH2 [Ac-IDIWCK-NH2]	130 µM
Ac-IVILLG-NH2 [Ac-IVILLG-NH2]	25.5 µM
Ac-IVILTQ-NH2 [Ac-IVILTQ-NH2]	15.1 µM
Ac-IVIFFD-NH2 [Ac-IVIFFD-NH2]	12.6 µM

test system: Staphylococcus aureus ATCC 29213; assay: not given; settings: Tables 6-9

Molecule	IC50 against S. aureus
NCCCC[C@H](NC(=O)OCC1c2ccccc2-c2ccccc21)C(=O)N[C@@H](Cc1c[nH]c2ccccc12)C(=O)N[C@H](Cc1ccccc1)C(=O)N[C@H](Cc1ccc(O)cc1)C(N)=O [(KFmoc)Wfy-NH2] (Fmoc-KW[dF][dY]-NH2)	15 µg/mL (≈ 17.4 µM)
CC[C@@H](C)[C@@H](NC(=O)[C@@H](Cc1ccccc1)NC(=O)[C@H](Cc1c[nH]c2ccccc12)NC(=O)[C@H](CCCCN)NC(=O)OCC1c2ccccc2-c2ccccc21)C(N)=O [(KFmoc)Wfi-NH2] (Fmoc-KW[dF][dI]-NH2)	4 µg/mL (≈ 4.91 µM)
NCCCC[C@H](NC(=O)OCC1c2ccccc2-c2ccccc21)C(=O)N[C@@H](Cc1c[nH]c2ccccc12)C(=O)N[C@@H](Cc1ccc(O)cc1)C(=O)N[C@H](CC(N)=O)C(N)=O [(KFmoc)WYn-NH2] (Fmoc-KWY[dN]-NH2)	6 µg/mL (≈ 7.22 µM)
CC[C@@H](C)[C@@H](NC(=O)[C@@H](CS)NC(=O)[C@H](CCCCN)NC(=O)OCC1c2ccccc2-c2ccccc21)C(=O)N[C@H](Cc1ccccc1)C(N)=O [(KFmoc)cif-NH2] (Fmoc-K[dC][dI][dF]-NH2)	21 µg/mL (≈ 28.7 µM)
NCCCC[C@H](NC(=O)OCC1c2ccccc2-c2ccccc21)C(=O)N[C@@H](Cc1c[nH]c2ccccc12)C(=O)N[C@@H](Cc1ccc(O)cc1)C(=O)N[C@H](CS)C(N)=O [(KFmoc)WYc-NH2] (Fmoc-KWY[dC]-NH2)	21 µg/mL (≈ 25.6 µM)
(KFmoc)WK(KCBZ)-NH2	9 µg/mL
NCCCC[C@H](NC(=O)OCC1c2ccccc2-c2ccccc21)C(=O)N[C@@H](Cc1c[nH]c2ccccc12)C(=O)N[C@@H](CCCCN)C(=O)N[C@H](CCCCN)C(N)=O [(KFmoc)WKk-NH2] (Fmoc-KWK[dK]-NH2)	8 µg/mL (≈ 9.88 µM)

same assay, conditions: Tables 7-9, lower parts (unnatural amino acids)

Molecule	IC50 against S. aureus
(KFmoc)Wf(Cys[ACM])-NH2	18 μg/m
(KFmoc)WY(Hyp)-NH2	9 μg/m
(KFmoc)Wf(7aHa)-NH2	7 μg/m

test system: Candida albicans ATCC 10231; assay: not given; settings: Tables 14-17

Molecule	IC50 against C. albicans
(KFmoc)ciG-NH2	372 µg/mL
CC[C@@H](C)[C@@H](NC(=O)[C@@H](CS)NC(=O)[C@H](CCCCN)NC(=O)OCC1c2ccccc2-c2ccccc21)C(=O)N[C@H](Cc1ccccc1)C(N)=O [(KFmoc)cif-NH2] (Fmoc-K[dC][dI][dF]-NH2)	218 µg/mL (≈ 298 µM)
(KFmoc)WK(KCBZ)-NH2	161 µg/mL
NCCCC[C@H](NC(=O)OCC1c2ccccc2-c2ccccc21)C(=O)N[C@@H](Cc1c[nH]c2ccccc12)C(=O)N[C@@H](CCCCN)C(=O)N[C@H](CCCCN)C(N)=O [(KFmoc)WKk-NH2] (Fmoc-KWK[dK]-NH2)	126 µg/mL (≈ 156 µM)

test system: Streptococcus sanguis ATCC 10556; assay: not given; settings: Tables 10-13

Molecule	IC50 against S. sanguis
NCCCC[C@H](NC(=O)OCC1c2ccccc2-c2ccccc21)C(=O)N[C@@H](Cc1c[nH]c2ccccc12)C(=O)N[C@H](Cc1ccccc1)C(=O)N[C@H](Cc1ccc(O)cc1)C(N)=O [(KFmoc)Wfy-NH2] (Fmoc-KW[dF][dY]-NH2)	17 µg/mL (≈ 19.7 µM)
CC[C@@H](C)[C@@H](NC(=O)[C@@H](CS)NC(=O)[C@H](CCCCN)NC(=O)OCC1c2ccccc2-c2ccccc21)C(=O)N[C@H](C)C(N)=O [(KFmoc)cia-NH2] (Fmoc-K[dC][dI][dA]-NH2)	59 µg/mL (≈ 90.1 µM)
CC[C@@H](C)[C@@H](NC(=O)[C@@H](Cc1ccccc1)NC(=O)[C@H](Cc1c[nH]c2ccccc12)NC(=O)[C@H](CCCCN)NC(=O)OCC1c2ccccc2-c2ccccc21)C(N)=O [(KFmoc)Wfi-NH2] (Fmoc-KW[dF][dI]-NH2)	4 µg/mL (≈ 4.91 µM)
NCCCC[C@H](NC(=O)OCC1c2ccccc2-c2ccccc21)C(=O)N[C@@H](Cc1c[nH]c2ccccc12)C(=O)N[C@@H](Cc1ccc(O)cc1)C(=O)N[C@H](CC(N)=O)C(N)=O [(KFmoc)WYn-NH2] (Fmoc-KWY[dN]-NH2)	8 µg/mL (≈ 9.63 µM)
(KFmoc)ciG-NH2	23 µg/mL
NCCCC[C@H](NC(=O)OCC1c2ccccc2-c2ccccc21)C(=O)N[C@@H](Cc1c[nH]c2ccccc12)C(=O)N[C@@H](Cc1ccc(O)cc1)C(=O)N[C@H](CS)C(N)=O [(KFmoc)WYc-NH2] (Fmoc-KWY[dC]-NH2)	42 µg/mL (≈ 51.2 µM)
(KFmoc)WK(KCBZ)-NH2	9 µg/mL
NCCCC[C@H](NC(=O)OCC1c2ccccc2-c2ccccc21)C(=O)N[C@@H](Cc1c[nH]c2ccccc12)C(=O)N[C@@H](CCCCN)C(=O)N[C@H](CCCCN)C(N)=O [(KFmoc)WKk-NH2] (Fmoc-KWK[dK]-NH2)	7 µg/mL (≈ 8.64 µM)

same assay, conditions: Tables 11-13, lower parts (unnatural amino acids)

Molecule	IC50 against S. sanguis
(KFmoc)Wf(Cys[ACM])-NH2	30 μg/m
(KFmoc)WY(Hyp)-NH2	10 μg/m
(KFmoc)Wf(7aHa)-NH2	10 μg/m
